Assay results: paper PMC6474902, “Examination of novel 4-aminoquinoline derivatives designed and synthesized by a hybrid pharmacophore approach to enhance their anticancer activities” (Scientific Reports, 2019)

Tests used:
MCF7 = test: SRB antiproliferative/antigrowth assay; assay type: cell-based, human
Method in brief: (§1)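 Cells seeded 24 h before exposure to seven concentrations (100 µM to 0.0064 µM) for 48 h at 37 °C. Growth by TCA fixation and SRB staining, absorbance 515–564 nm, relative to time-zero and untreated controls; GI50 from variable-slope sigmoidal fit, reported as greater/less than range limits when not reached.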

MDA-MB468 = test: SRB antiproliferative/antigrowth assay; assay type: cell-based, human; conditions: Homo sapiens, MDA-MB-468, 48 h, read-out: GI50 MB468
Method in brief: as §1

Question: For `O=[N+]([O-])c1ccc(S(=O)(=O)N2CCN(c3ccnc4cc(Cl)ccc34)CC2)c([N+](=O)[O-])c1` [Compound 13, 7-Chloro-4-(4-(2,4-dinitrophenylsulfonyl)piperazin-1-yl)quinoline], which GI50 (MCF7; Homo sapiens, MCF7, 48 h, read-out: GI50 MCF7) is on record?
Answer: 2300 ± 100 nM

Question: And the “more effective than cisplatin (MCF7)” value (MCF7; ratio of GI50 values)?
Answer: 11.1 fold

Question: And the GI50 (MDA-MB468)?
Answer: 700 ± 100 nM
